# Assay results as given in patent publication US20060083691A1, “Intranasal opioid compositions, delivery devices and methods of using same” (priority 2000, published 2006).
# What was measured:
# Assay type in all cases: in vivo, human
# [1] = Pharmacokinetics of single or multiple doses of intranasal butorphanol tartrate, two-way crossover study
# Protocol: Pharmacokinetic parameters of single doses or multi doses of intranasal butorphanol tartrate using a single-dose, metered sprayer were evaluated in a 12 subject, two-way crossover study. The butorphanol formulation used was as described in Example 2. Each volunteer received either 1 or 2 mg of intranasal butorphanol as a single does (Treatment A) and 1 or 2 mg of intranasal butorphanol every six hours for seven doses (Treatment B). The butorphaonol composition was substantially as described in Example 2. During phase 1, 12 subjects received a single 1 mg dose. During phase 2, those who received the 1 mg single dose received 1 mg every six hours for seven doses. During phase 3, those who received the 2 mg single dose received 2 mg every six hours for seven doses. Serial blood samples were collected over 12 hours. Pharmacokinetic parameters are show in Table 5.
# [2] = Pharmacokinetics and bioequivalence of butorphanol formulation, unit-dose vs multi-dose delivery device; conditions: 2 mg intranasal
# Protocol: The experiments described in this example compared bioavailability and other parameters of a butorphanol formulation when administered using a unit-dose or multi-dose delivery device. The butorphanol formulation used for this example (STADOL NS®) contained 10 mg butorphanol tartrate, 6.5 mg sodium chloride, 1.0 mg citric acid, 0.20 mg benzethonium chloride in purified water with 1.2 mg sodium hydroxide and hydrochloric acid added to adjust the pH to 5.0.
# The multi-dose sprayer purported by its label to administer 0.1 ml of liquid composition by metering upon activation by the user. The unit-dose spray device was a disposable intranasal applicator that is commercially available from Pfeiffer of America under the designation “Unitdose Second Generation.” Each of the Pfeiffer spray applicators was charged with sufficient liquid to deliver a 0.1 ml dose of the butorphanol formulation. The associated glass containers were filled using a pipette under clean conditions, sealed and assembled to the applicator. Each of the applicators was weighed prior to use and after use. Qualified medical personnel administered one dose into each nostril, after which the applicator was recovered for weighing. In the case of the unit-dose applicators, two devices were used for each patient for a total of 2 mg butorphanol tartrate.
# Pharmacokinetics and bioequivalence (intrasubject variabilitiy) of the above-described butorphanol formulation upon administration using either the multi-dose or unit dose delivery device was assessed. The study was initiated with 16 subjects, 15 of which completed the study to provide data for this analysis; one subject dropped out after the second period. The following analysis considers both raw and normalized data, with the latter standardized with respect to the dose dispensed.
# For both the raw and normalized data, log transformations are applied to the pharmacokinetic endpoints Cmax, AUC(last), and AUC(inf). A mixed effects model was considered for each parameter. Fixed effects for the factors sequence (4 levels), period 3 levels) and device (2 levels) were included in the model. Additionally, gender, as well as the interactions between gender and each of sequence, period and device was included as a factor in each model to determine whether separate analyses would be necessary for males and females. A total of seven models were considered: Tmax, log of raw Cmax values, log of normalized Cmax values, log transformed values for raw and normalized AUC(last), and log values for raw and normalized AUC(inf). […] In addition, the lack of significance of the effects included in each model indicate that there was no evidence of unequal carryover between the two delivery devices. […]
# [3] = Pharmacokinetics of single doses of intranasal butorphanol tartrate, three-way crossover study; conditions: for F(%): relative to 2 mg i.v.
# Protocol: Pharmacokinetic parameters of single doses of intranasal butorphanol tartrate using a single-dose, metered sprayer were evaluated in a 24 subject, three-way crossover study. The intranasal formulation contained aqueous buffered solution (pH 5) having 0.2% sodium citrate and 0.2% citric acid and 1 mg of butorphanol tartrate per ml. […] Each volunteer received three treatments: (1) 2 mg of i.v. butorphanol, (2) 2 mg of intranasal butorphanol, and (3) 1 mg of intranasal butorphanol. Each treatment was separated by a 6 day washout period.
# [4] = Multiple Dose 1 mg q 6 hr intranasal
# [5] = Multiple Dose 2 mg q 6 hr intranasal
compound,measurement,setting,value
O=C(O)C(O)C(O)C(=O)O.Oc1ccc2c(c1)[C@@]13CCCC[C@@]1(O)[C@@H](C2)N(CC1CCC1)CC3 [butorphanol tartrate],AUC0-t,[1]; [4],7.21 ng·h/mL
same,Cmax,[1]; [4],1.55 ng/mL
same,Tmax range,[1]; [4],(0.25-3.0)
same,AUC0-t,[1]; [5],15.75 ng·h/mL
same,Cmax,[1]; [5],3.80 ng/mL
same,Tmax range,[1]; [5],(0.25-0.75)
same,AUC0-t,[1]; Single Dose 1 mg intranasal,3.80 ng·h/mL
same,Cmax,[1]; Single Dose 1 mg intranasal,1.46 ng/mL
same,Tmax range,[1]; Single Dose 1 mg intranasal,(0.17-1.02)
same,AUC0-t,[1]; Single Dose 2 mg intranasal,9.55 ng·h/mL
same,Cmax,[1]; Single Dose 2 mg intranasal,4.13 ng/mL
same,Tmax range,[1]; Single Dose 2 mg intranasal,(0.167-0.5)
same,AUC0-t,[2]; STADOL NS multi-dose device,about 9329 pg*hr/ml
same,Cmax,[2]; STADOL NS multi-dose device,about 4027 pg/ml
same,Tmax,[2]; STADOL NS multi-dose device,about 0.245 hr
same,AUC,[2]; unit-dose device,about 10661 pg*hr/ml
same,AUC0-t,[3]; 1 mg intranasal,4.88 ± 1.5 ng·h/mL
same,Cmax,[3]; 1 mg intranasal,1.67 ± 0.7 ng/mL
same,F(%),[3]; 1 mg intranasal,80.2 ± 29.1%
same,AUC0-t,[3]; 2 mg i.v.,12.59 ± 2.3 ng·h/mL
same,Cmax,[3]; 2 mg i.v.,10.32 ± 2.7 ng/mL
same,AUC0-t,[3]; 2 mg intranasal,9.51 ± 1.9 ng·h/mL
same,Cmax,[3]; 2 mg intranasal,3.38 ± 1.3 ng/mL
same,F(%),[3]; 2 mg intranasal,77.6 ± 18.3%
